# Test results published in US11766470B2, “Manufacture, formulation and dosing of apraglutide” (VectivBio AG, priority 2020, dated 2023).
# Square brackets hold non-standard residues; d marks the D form. Peptide text beside a SMILES is read from it. ξ: configuration not given here. Ile(3ξ) = CCC(C)[C@H](N)C(=O)O; Thr(3ξ) = CC(O)[C@H](N)C(=O)O; Nle = CCCC[C@H](N)C(=O)O
# Legend:
# [1] = cited from earlier work
# [2] = system: patients with SBS-IF or SBS-II; assay: Safety assessments (adverse events) in Phase 2 metabolic balance trial (Example 6)
# Method: Patients were treated with once weekly 5 mg apraglutide for four weeks. Apraglutide was provided as a freeze-dried powder for reconstitution in sterile water prior to injection, and treatments were administered as subcutaneous injections in the abdominal area. A 72-hour metabolic balance study was performed at baseline and at the end of the treatment period (starting one day after the fourth and last apraglutide injection). Each 72-hour metabolic balance study was performed during a five-day hospital admission. On the day of admission, patients were instructed to create a 24-hour drinking menu based on their habitual oral fluid intake. The drinking menu was to be followed during each balance study. On the second day of admission, just after the patients had urinated and emptied their stoma bags or defecated, the balance study was initiated. […] Daily PS and compliance to the predefined drinking menu was documented during admissions.
# First, second and fourth apraglutide injections were performed at the hospital. Safety assessments included observation for injection site reactions, vital signs, blood samples, electrocardiogram (ECG), urinalysis and body weight. They were performed at baseline, during each injection of the trial drug, four days after first injection, at the end of treatment and 4-6 weeks after last dosing at the end of the trial, as shown in Table 20. Liver enzymes were measured prior to each drug administration.
# healthy adult volunteers = assay: Safety in multiple dose study in healthy volunteers; format: in vivo, human; settings: 1, 5 or 10 mg, 6 weekly SC doses
# Method: The pharmacokinetic/pharmacodynamic (PK/PD) relationship between apraglutide, a novel long-acting GLP-2 analog in development for short bowel syndrome, and citrulline was evaluated in a randomized, double-blind, parallel arm, placebo-controlled, multiple dose study. 23 healthy adult volunteers received 6 weekly subcutaneous doses of apraglutide (1, 5, or 10 mg) or placebo and were followed for a further 6 weeks after the last dose. Blood collections were controlled for diet, lifestyle, and diurnal effects.
smiles,measurement,setting,value
"CCCC[C@H](NC(=O)[C@H](CCC(=O)O)NC(=O)[C@H](CC(=O)O)NC(=O)[C@H](CO)NC(=O)[C@H](Cc1ccccc1)NC(=O)[C@H](CO)NC(=O)CNC(=O)[C@H](CC(=O)O)NC(=O)CNC(=O)[C@@H](N)Cc1c[nH]cn1)C(=O)N[C@H](Cc1ccccc1)C(=O)N[C@H](C(=O)N[C@H](C(=O)N[C@@H](CC(C)C)C(=O)N[C@@H](CC(=O)O)C(=O)N[C@@H](CC(C)C)C(=O)N[C@@H](CC(C)C)C(=O)N[C@@H](C)C(=O)N[C@@H](C)C(=O)N[C@@H](CCCNC(=N)N)C(=O)N[C@@H](CC(=O)O)C(=O)N[C@@H](Cc1ccccc1)C(=O)N[C@H](C(=O)N[C@@H](CC(N)=O)C(=O)N[C@@H](Cc1c[nH]c2ccccc12)C(=O)N[C@@H](CC(C)C)C(=O)N[C@H](C(=O)N[C@@H](CCC(N)=O)C(=O)N[C@H](C(=O)N[C@@H](CCCCN)C(=O)N[C@H](C(=O)N[C@H](C(=O)N[C@@H](CC(=O)O)C(N)=O)C(C)O)C(C)CC)C(C)O)C(C)CC)C(C)CC)C(C)CC)C(C)O (stereo partly drawn) [apraglutide, L-histidyl-glycyl-L-aspartyl-glycyl-L-seryl-L-phenylalanyl-L-seryl-L-aspartyl-L-glutamyl-L-norleucyl-D-phenylalanyl-L-threonyl-Lisoleucyl-L-leucyl-L-aspartyl-L-leucyl-L-leucyl-L-alanyl-L-alanyl-L-arginyl-L-aspartyl-L-phenylalanyl-L-isoleucyl-L-asparaginyl-Ltryptophanyl-L-leucyl-L-isoleucyl-L-glutaminyl-L-threonyl-L-lysyl-L-isoleucyl-L-threonyl-Laspartic acid amide] (H-HGDGSFSDE[Nle][dF][Thr(3ξ)][Ile(3ξ)]LDLLAARDF[Ile(3ξ)]NWL[Ile(3ξ)]Q[Thr(3ξ)]K[Ile(3ξ)][Thr(3ξ)]D-NH2)","Intestinotrophic effect in animal models, in words",[1],"promoted increase in intestinal length and weight, villus height and crypt depth"
same,"Injection site reactions (transient), number of patients",[2]; 5 mg,One
same,Patients with serious adverse events,[2]; 5 mg,two
same,Serious adverse events assessed as related to the trial drug (abdominal pain),[2]; 5 mg,One
same,"Serious adverse events, number",[2]; 5 mg,three
same,Safety and tolerability in words,"[2]; 5 mg once weekly, four weeks, SBS-II and SBS-IF",safe and well tolerated
same,"Abdominal pain, number of patients","[2]; SBS-IF (N = 4), 5 mg",2
same,"Any adverse event, number of patients","[2]; SBS-IF (N = 4), 5 mg",4
same,"Flatulence, number of patients","[2]; SBS-IF (N = 4), 5 mg",1
same,"Fluid retention, number of patients","[2]; SBS-IF (N = 4), 5 mg",1
same,"Gastrointestinal stoma complication, number of patients","[2]; SBS-IF (N = 4), 5 mg",2
same,"Gastrointestinal stoma output abnormal, number of patients","[2]; SBS-IF (N = 4), 5 mg",1
same,"Gastrointestinal stoma output decreased, number of patients","[2]; SBS-IF (N = 4), 5 mg",3
same,"Nausea, number of patients","[2]; SBS-IF (N = 4), 5 mg",4
same,"Polyuria, number of patients","[2]; SBS-IF (N = 4), 5 mg",1
same,"Stoma complication, number of patients","[2]; SBS-IF (N = 4), 5 mg",3
same,"Weight increased, number of patients","[2]; SBS-IF (N = 4), 5 mg",0
same,"Abdominal pain, number of patients","[2]; SBS-II (N = 4), 5 mg",1
same,"Any adverse event, number of patients","[2]; SBS-II (N = 4), 5 mg",4
same,"Flatulence, number of patients","[2]; SBS-II (N = 4), 5 mg",3
same,"Fluid retention, number of patients","[2]; SBS-II (N = 4), 5 mg",1
same,"Gastrointestinal stoma complication, number of patients","[2]; SBS-II (N = 4), 5 mg",3
same,"Gastrointestinal stoma output abnormal, number of patients","[2]; SBS-II (N = 4), 5 mg",3
same,"Gastrointestinal stoma output decreased, number of patients","[2]; SBS-II (N = 4), 5 mg",3
same,"Nausea, number of patients","[2]; SBS-II (N = 4), 5 mg",1
same,"Polyuria, number of patients","[2]; SBS-II (N = 4), 5 mg",2
same,"Stoma complication, number of patients","[2]; SBS-II (N = 4), 5 mg",3
same,"Weight increased, number of patients","[2]; SBS-II (N = 4), 5 mg",2
same,"Abdominal pain, number of patients","[2]; Total (N = 8), 5 mg",3
same,"Any adverse event, number of patients","[2]; Total (N = 8), 5 mg",8
same,"Flatulence, number of patients","[2]; Total (N = 8), 5 mg",4
same,"Fluid retention, number of patients","[2]; Total (N = 8), 5 mg",2
same,"Gastrointestinal stoma complication, number of patients","[2]; Total (N = 8), 5 mg",5
same,"Gastrointestinal stoma output abnormal, number of patients","[2]; Total (N = 8), 5 mg",4
same,"Gastrointestinal stoma output decreased, number of patients","[2]; Total (N = 8), 5 mg",6
same,"Nausea, number of patients","[2]; Total (N = 8), 5 mg",5
same,"Polyuria, number of patients","[2]; Total (N = 8), 5 mg",3
same,"Stoma complication, number of patients","[2]; Total (N = 8), 5 mg",6
same,"Weight increased, number of patients","[2]; Total (N = 8), 5 mg",2
same,Safety and tolerability in words,healthy adult volunteers,safe and well-tolerated with no serious AEs
